Assay: xn = mol fraction of the nth substance listed
Settings: 100 kPa

O + CC[n+]1ccn(C)c1.N#C[S-]
x1 = 1
Settings | viscosity [mPa·s]
288.15 K | 1.13
298.15 K | 0.89
308.15 K | 0.72
313.15 K | 0.65
318.15 K | 0.6

CC[n+]1ccn(C)c1.N#C[S-] + O
viscosity [mPa·s]
Settings | 288.15 K | 293.15 K | 298.15 K | 303.15 K | 308.15 K | 313.15 K | 318.15 K
x2 = 0 | 34.24 | 27.9 | 22.68 | 19.09 | – | 14.18 | –
x2 = 0.1006 | 27.45 | – | 18.74 | 16.03 | 13.87 | – | 10.71
x2 = 0.1948 | 21.99 | 18.63 | 15.93 | – | – | 10.58 | –
x2 = 0.3026 | 18.6 | 15.74 | 13.44 | 11.61 | 10.14 | 8.93 | 7.94
x2 = 0.4011 | 15.07 | 12.81 | 10.99 | – | 8.39 | 7.43 | 6.62
x2 = 0.4979 | 12.4 | 10.43 | 8.94 | 7.77 | 6.83 | 6.07 | 5.43
x2 = 0.6043 | 9.2 | 7.9 | 6.85 | 6.01 | – | 4.74 | 4.26
x2 = 0.6887 | 7.15 | 6.17 | 5.38 | – | – | 3.74 | 3.35
x2 = 0.7981 | 4.7 | – | – | – | – | – | –
x2 = 0.9105 | 2.53 | – | 2.02 | 1.79 | 1.6 | – | 1.31
x2 = 0.9443 | – | 1.76 | 1.57 | 1.39 | 1.25 | 1.13 | 1.03
x2 = 0.9506 | 1.86 | 1.67 | 1.49 | 1.32 | 1.19 | – | 0.98

— a compilation of properties of binary mixtures (doi:10.1016/j.jct.2016.12.008)
